We go through 1 molecule from US20250268894A1, “MACROCYCLE COMPOUNDS FOR THE TREATMENT OF CANCER” (Hoffmann-La Roche Inc., priority 2022, published 2025).

pIC50: −log10 of the molar value.

Data set [1] is described as follows: Single dose pharmacokinetics (PK) study in female BALB/c mice. Type of data set: in vivo. The protocol:
The purpose of this study was to determine the pharmacokinetics of selected compounds following single intravenous bolus or oral gavage administration in female BALB/c mice. Briefly, two groups of female BALB/c mice (available from Shanghai Lingchang Biotechnology Co., Ltd)(N=3/group) were treated with a single dose of compound intravenously at 3 mg/kg (IV) or orally at 30 mg/kg (PO). Blood samples were collected at 5 min (only for IV), […], 30 min, 1 h, 2 h, 4 h, 7 h and 24 h post-dose. Blood samples were placed on ice until centrifugation to obtain plasma samples. The concentration of compound in plasma samples was determined using LC-MS/MS method. The pharmacokinetic parameters were calculated by non-compartmental analysis.

Data set [2] deals with phosphorylation of ERK, KRAS G12C in NCI-H358 cells. Put plainly: pERK inhibition assay, KRAS G12C in NCI-H358 cells. It counts as cell-based, human. Conditions: Homo sapiens, NCI-H358, 4 hours. In short, it runs like this: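 NCI-H358 (G12C), AGS (G12D) and SW620 (G12V) cells in RPMI-1640/10% FBS, plated overnight, then treated 4 h with compound (0.5% DMSO final). Fixed, methanol-permeabilized; phospho-ERK detected by in-cell ELISA (anti-pERK, HRP secondary, TMB, OD450). IC50 from 4-parameter sigmoidal fit.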

The next data set addresses KRAS G12D-BRAF complex (Homo sapiens (Human), UniProt P01116+P62937, G12D). Description: KRAS-BRAF with CYPA (500 nM) interaction assay (TR-FRET), G12D. Type of data set: biochemical. Here is the method: Kras-BRAF with CYPA (500 nM) Interaction Assay In this example, TR-FRET was also used to measure the compound or compound-CYPA dependent disruption of the KRAS G12C-BRAF complex. This protocol was also used to measure disruption of KRAS G12D or KRAS G12V binding to BRAF by a compound of the invention, respectively. […] Compound was present in plate wells as a 16-point 3-fold dilution series starting at a final concentration of 10 μM and incubated for 3 hours. […] TR-FRET signal was read on a […] microplate reader (Ex320 nm, Em 665/615 nm). Compounds that facilitate disruption of the KRAS-BRAF complex were identified as those eliciting a decrease in the TR-FRET ratio relative to DMSO control wells.

The mark [3] stands for this setting: mouse, 30 mg/kg, po, female BALB/c mice, plasma.

Sequence of KRAS G12D-BRAF complex (P01116-2 other isoform, or with tags, fused parts or gaps G12D): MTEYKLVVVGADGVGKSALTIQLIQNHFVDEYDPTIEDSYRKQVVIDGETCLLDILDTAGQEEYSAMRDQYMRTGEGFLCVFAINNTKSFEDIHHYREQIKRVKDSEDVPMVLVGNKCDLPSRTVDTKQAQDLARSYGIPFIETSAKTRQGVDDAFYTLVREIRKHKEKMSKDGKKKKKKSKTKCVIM
Sequence of KRAS G12D-BRAF complex (P62937 whole entry): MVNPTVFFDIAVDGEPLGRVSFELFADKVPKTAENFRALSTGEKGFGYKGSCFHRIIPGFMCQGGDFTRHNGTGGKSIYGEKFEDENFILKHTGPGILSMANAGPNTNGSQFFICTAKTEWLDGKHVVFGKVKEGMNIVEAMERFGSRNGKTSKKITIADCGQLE

Consider `CO[C@@H](C)c1ncc(N2CCN(CC(F)(F)F)CC2)cc1-c1c2c3cc(ccc3n1CC(F)(F)F)-c1csc(n1)C[C@H](NC(=O)[C@H](C(C)C)N(C)C(=O)N1CCOCC1)C(=O)N1CCC[C@H](N1)C(=O)OCC(C)(C)C2` (atropisomer, axis not shown; (M)) [Example 6], for which, in data set [1] (30 mg/kg, po, female BALB/c mice), the F stood at 29.7%. Besides, in data set [1] (30 mg/kg, po, mouse model), the “AUC0-last compared with compound A555” value was 15 folds and the “Cmax compared with compound A555” value was roughly 7 folds. In addition, the clearance (as a rule, a measure of how efficiently the substance is removed, as volume per time) in data set [1] (mouse, 3 mg/kg, iv, female BALB/c mice, plasma) was 3.7 mL/min/kg. Besides, in data set [1] (setting [3]), the AUC(0-t) (as a rule, the area under the concentration-time curve up to a stated or last time point) was 36800 ng·h/mL and the Cmax (as a rule, the highest concentration seen after dosing) was found to be 4890 ng/mL. For the same molecule, in data set [2], the pIC50 – broadly, the IC50 on a negative log10 scale, so that one unit is a factor of ten – is 8.70. For the same molecule, the negative-log IC50 (pIC50) against KRAS G12D-BRAF complex was 7.15.
